Here are results for 6 compounds from DBAASP.

Converted amounts (≈) assume the structure as drawn.

Among the test systems are Bacillus subtilis 168; Escherichia coli B; Pseudomonas aeruginosa; Staphylococcus aureus; Pseudomonas fluorescens; Pseudomonas putida; Escherichia coli DC2; Escherichia coli UB1005.
Holding throughout (assay): ≥ marks a high value that may be exact or a test limit, other limits are often not marked, values filed in µg/mL are converted to µM
For test [1], the system named is Bacillus licheniformis X39.
Test [2] concerns Candida albicans ATCC 2002.
Test [3] concerns Enterococcus faecalis 981.
The test system of test [4] is Enterococcus faecium 091299.
Test [5] deals with Escherichia coli ATCC 25922.
The test system of test [6] is Psychrobacter faecalis X29.
The test system of test [7] is Rhodococcus rhodochrous X15.
Test [8] has as its system Staphylococcus aureus ATCC 25923.
In test [9] the test system is Staphylococcus carnosus KHS.
Test [10] deals with Candida albicans F7-39/IDE99.
In test [11] the test system is Acinetobacter baumannii ATCC 19606.
The test system of test [12] is Bacillus magaterium AB90008.
Test [13] has as its system Enterobacter cloacae AB2010162.
Test [14] has as its system Escherichia coli DH5alpha.
Test [15] deals with Klebsiella pneumoniae ATCC 27736.
For test [16], the system named is Micrococcus luteus AB2010179.
The test system of test [17] is Pseudomonas aeruginosa ATCC BAA-427.
For test [18], the system named is Salmonella enterica AB2010185.
The test system of test [19] is Staphylococcus aureus AB94004.
Test [20] has as its system Staphylococcus aureus ATCC 33591.
Test [21] relates to Acinetobacter baumannii NM8.
The test system of test [22] is Escherichia coli ATCC 25726.
Test [23] relates to Staphylococcus aureus 127/08.
The subject of test [24] is Stenotrophomonas maltophilia B32/1.
Test [25] concerns Stenotrophomonas maltophilia B32/4.
The test system of test [26] is Corynebacterium xerosis C875.
In test [27] the test system is Staphylococcus epidermidis C621.
The test system of test [28] is Bacillus subtilis ATCC 6633.
Test [29] relates to Enterococcus faecalis ATCC 12953.
The subject of test [30] is Escherichia coli ATCC 8739.
Test [31] has as its system Klebsiella pneumoniae ATCC 13885.
Test [32] concerns Proteus mirabilis ATCC 25933.
Test [33] relates to Pseudomonas aeruginosa ATCC 15442.
The test system of test [34] is Salmonella enterica subsp. enterica serovar Typhimurium ATCC 14028.
The subject of test [35] is Staphylococcus aureus ATCC 29213.
Test [36] deals with Streptococcus pyogenes ATCC 19615.

A word on the MIC: it is the lowest concentration that inhibits growth of the organism. A higher MIC goes with a need for much substance. Consider `CC[C@H](C)[C@H](NC(=O)[C@H](CC(C)C)NC(=O)[C@@H]1CCCN1C(=O)[C@H](CC(C)C)NC(=O)[C@@H](N)Cc1ccccc1)C(=O)N[C@@H](C)C(=O)N[C@@H](CO)C(=O)N[C@H](C(=O)N[C@@H](C)C(=O)N[C@@H](C)C(=O)N[C@@H](CC(N)=O)C(=O)N[C@@H](CC(C)C)C(=O)N[C@H](C(=O)N1CCC[C@H]1C(=O)N[C@@H](CCCCN)C(=O)N[C@H](C(=O)N[C@@H](Cc1ccccc1)C(=O)N[C@H]1CSSC[C@@H](C(=O)O)NC(=O)[C@H](CCCCN)NC(=O)[C@H](CCCCN)NC(=O)[C@H]([C@@H](C)O)NC(=O)[C@H]([C@@H](C)CC)NC(=O)[C@H](CCCCN)NC1=O)[C@@H](C)CC)C(C)C)C(C)C` [FLPLIASVAANLVPKIFCKITKKC], for which the MIC was 2.4 µM (≈ 6.28 µg/mL) in test [1]; 9.5 µM (≈ 24.9 µg/mL) in [2]; at least 75 µM in [3]; at least 37.5 µM in test [4]; 150 µM (≈ 392 µg/mL) in test [5]; 9.5 µM (≈ 24.9 µg/mL) in test [6]. The MIC worked out at 1.2 µM (≈ 3.14 µg/mL) in test [7], 2.4 µM (≈ 6.28 µg/mL) in test [8] and 19 µM (≈ 49.7 µg/mL) in [9].

On to `CC[C@H](C)[C@H](NC(=O)[C@H](Cc1cnc[nH]1)NC(=O)[C@H](CCCCN)NC(=O)[C@H](CC(C)C)NC(=O)[C@H](Cc1ccccc1)NC(=O)[C@H](CO)NC(=O)[C@H](CCSC)NC(=O)[C@H](Cc1c[nH]c2ccccc12)NC(=O)[C@H](CCCCN)NC(=O)CN)C(=O)N[C@@H](CC(C)C)C(=O)N[C@@H](CCCCN)C(N)=O` [GKWMSFLKHILK], for which the MIC came out at 1.1 µM (≈ 1.64 µg/mL) in the test with Bacillus subtilis 168; 6.8 µM (≈ 10.1 µg/mL) in [10]; 4 µM (≈ 5.95 µg/mL) against Escherichia coli B; 21.8 µM (≈ 32.4 µg/mL) against Pseudomonas aeruginosa; 6.4 µM (≈ 9.52 µg/mL) against Staphylococcus aureus.

As to `CC[C@H](C)[C@H](N)C(=O)N[C@@H](CC(C)C)C(=O)NCC(=O)N[C@@H](CCC(=O)O)C(=O)N[C@H](C(=O)N[C@@H](Cc1c[nH]c2ccccc12)C(=O)N[C@@H](CCCCN)C(=O)NCC(=O)N[C@H](C(=O)N[C@@H](CCCCN)C(=O)N[C@@H](CC(=O)O)C(=O)N[C@H](C(=O)N[C@@H](CC(C)C)C(N)=O)[C@@H](C)CC)[C@@H](C)CC)[C@@H](C)CC` [ILGEIWKGIKDIL], the MIC in [11] is above 26.7 µM; in [12], at least 41 µM; in test [13], at least 82 µM; in [5] it was at least 100 µM; in test [14] it was at least 82 µM; in test [15], at least 100 µM. Further, the MIC in test [16] was at least 82 µM; in test [17], at least 100 µM; in the test on Pseudomonas fluorescens it was at least 82 µM; against Pseudomonas putida it was at least 82 µM; in [18], at least 82 µM; in [19], at least 82 µM. For the same compound, the minimum inhibitory concentration (MIC) in [8] and in [20] was at least 100 µM each time.

Regarding `CC[C@H](C)[C@@H]1NC(=O)[C@H](CCCCN)NC(=O)[C@@H](NC(=O)[C@H](C)NC(=O)[C@@H](NC(=O)[C@H](CC(C)C)NC(=O)[C@H](CC(=O)O)NC(=O)[C@@H](NC(=O)CNC(=O)[C@H](CC(C)C)NC(=O)[C@H](CCCCN)NC(=O)[C@H](C)NC(=O)[C@H](CC(C)C)NC(=O)[C@H](CC(=O)O)NC(=O)[C@H](CCCCN)NC(=O)CNC(=O)[C@H](CC(C)C)NC(=O)CNC(=O)[C@@H](N)CCCCN)C(C)C)C(C)C)CSSC[C@@H](C(=O)O)NC(=O)[C@H](CCC(N)=O)NC(=O)[C@H](CCCCN)NC(=O)[C@H](CO)NC1=O` [KGLGKDLAKLGVDLVACKISKQC], the minimal inhibitory concentration (MIC) was at least 200 µM in [21]; at least 200 µM in test [22]; at least 200 µM in test [23]; above 200 µM in test [8]; at least 200 µM in [24]; at least 200 µM in [25].

Regarding `C[C@H](NC(=O)[C@H](C)NC(=O)[C@H](C)NC(=O)[C@H](Cc1cnc[nH]1)NC(=O)[C@H](C)NC(=O)[C@H](C)NC(=O)[C@H](C)NC(=O)[C@H](CCCCN)NC(=O)[C@@H](N)CCCCN)C(=O)N[C@@H](C)C(=O)N[C@@H](C)C(=O)N[C@@H](Cc1cnc[nH]1)C(=O)N[C@@H](C)C(=O)N[C@@H](C)C(=O)N[C@@H](Cc1c[nH]c2ccccc12)C(=O)N[C@@H](C)C(=O)N[C@@H](C)C(=O)N[C@@H](Cc1cnc[nH]1)C(=O)N[C@@H](C)C(=O)N[C@@H](C)C(=O)N[C@@H](C)C(=O)N[C@@H](CCCCN)C(=O)N[C@@H](CCCCN)C(=O)N[C@@H](CCCCN)C(=O)N[C@@H](CCCCN)C(N)=O` [KKAAAHAAAAAHAAWAAHAAAKKKK], the minimum inhibitory concentration (MIC) in [26] was at least 32 µM; against Escherichia coli DC2, at least 64 µM; against Escherichia coli UB1005, at least 64 µM; in test [27], at least 64 µM.

On to `NCCCC[C@H](NC(=O)[C@@H](N)CCCCN)C(=O)N[C@@H](Cc1ccccc1)C(=O)N[C@@H](Cc1c[nH]c2ccccc12)C(=O)N[C@@H](CCC(=O)O)C(=O)N[C@@H](CC(=O)O)C(=O)N[C@@H](CC(=O)O)C(=O)NCC(N)=O` [KKFWEDDG], for which the minimal inhibitory concentration (MIC) in test [28] was at least 250 µM; in test [29], at least 125 µM; in [30] it was at least 250 µM; in [31] it was at least 125 µM; in test [32], at least 125 µM; in [33], at least 250 µM. Further, the MIC in test [34] was 125 µM (≈ 128 µg/mL); in [35], 250 µM (≈ 256 µg/mL); in test [36], at least 125 µM.
